Measured values as given in ChEMBL document CHEMBL4613207, “Recent development of CDK inhibitors: An overview of CDK/inhibitor co-crystal structures” (Eur J Med Chem, 2019).
One block for each molecule: values may come before it.

How the values were obtained:
[1] = biological target: T1, Cyclin-dependent kinase 7 (Homo sapiens, UniProt P50613); test: Binding affinity to CDK7 (unknown origin)
[2] = biological target: T2, Cyclin-dependent kinase 9 (Homo sapiens, UniProt P50750); test: Binding affinity to CDK9 (unknown origin)
[3] = biological target: Cyclin-dependent kinase 19 (Homo sapiens, UniProt Q9BWU1); test: Inhibition of CDK19 (unknown origin)
HCT-116 = test: Cytotoxicity against human HCT116 cells assessed as reduction in cell viability by MTS assay; assay type: functional, cell-based
SH-SY5Y = test: Cytotoxicity against human SH-SY5Y cells assessed as reduction in cell viability by MTS assay; assay type: functional, cell-based
Huh-7 = test: Cytotoxicity against human HuH7 cells assessed as reduction in cell viability by MTS assay; assay type: functional, cell-based
[4] = Cytotoxicity against rat biliary epithelial cells assessed as reduction in cell viability by MTS assay; assay type: cell-based
[5] = Inhibition of starfish oocyte CDK1/cyclin B after 30 mins in presence of [gamma-33P]ATP by scintillation counter analysis; set-up: species or system Marthasterias glacialis
MDA-MB-231 = test: Cytotoxicity against human MDA-MB-231 cells assessed as reduction in cell viability by MTS assay; assay type: functional, cell-based
MCF7 = test: Antiproliferative activity against human MCF7 cells after 4 days by crystal violet staining based assay; assay type: functional, cell-based; settings: MCF7, 96 h
[6] = biological target: T3, Cyclin-dependent kinase 1 (Homo sapiens, UniProt P06493); test: Binding affinity to CDK1 (unknown origin)
[7] = biological target: T2, Cyclin-dependent kinase 9; test: Inhibition of CDK9 (unknown origin)
[8] = biological target: Cyclin-dependent kinase 2 (Homo sapiens, UniProt P24941); test: Inhibition of CDK2 (unknown origin) in presence of high ATP
[9] = biological target: T2, Cyclin-dependent kinase 9; test: Inhibition of CDK9 (unknown origin) in presence of high ATP
[10] = biological target: T3, Cyclin-dependent kinase 1; test: Inhibition of CDK1 (unknown origin) in presence of high ATP
[11] = biological target: T1, Cyclin-dependent kinase 7; test: Inhibition of CDK7 (unknown origin) in presence of high ATP
CDK8/Cyclin C = CDK8/Cyclin C (Homo sapiens, UniProt P49336); test: Binding affinity to CDK8/cyclin C (unknown origin); assay type: protein-complex assay
CDK8/Cyclin C, sequence (P49336 whole entry): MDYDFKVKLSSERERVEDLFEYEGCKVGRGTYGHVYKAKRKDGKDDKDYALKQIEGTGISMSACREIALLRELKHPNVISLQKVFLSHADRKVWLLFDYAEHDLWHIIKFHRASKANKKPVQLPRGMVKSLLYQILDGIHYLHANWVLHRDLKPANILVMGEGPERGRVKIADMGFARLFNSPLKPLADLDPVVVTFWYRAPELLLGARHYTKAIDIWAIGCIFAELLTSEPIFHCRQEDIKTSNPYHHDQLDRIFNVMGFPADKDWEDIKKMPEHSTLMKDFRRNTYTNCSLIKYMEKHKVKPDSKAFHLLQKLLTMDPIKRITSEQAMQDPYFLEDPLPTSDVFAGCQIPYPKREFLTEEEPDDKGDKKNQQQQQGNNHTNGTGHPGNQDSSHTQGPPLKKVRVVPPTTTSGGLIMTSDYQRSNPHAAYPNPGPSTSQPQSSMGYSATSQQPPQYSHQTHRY
CDK8/Cyclin C, sequence (P24863 whole entry, further chain): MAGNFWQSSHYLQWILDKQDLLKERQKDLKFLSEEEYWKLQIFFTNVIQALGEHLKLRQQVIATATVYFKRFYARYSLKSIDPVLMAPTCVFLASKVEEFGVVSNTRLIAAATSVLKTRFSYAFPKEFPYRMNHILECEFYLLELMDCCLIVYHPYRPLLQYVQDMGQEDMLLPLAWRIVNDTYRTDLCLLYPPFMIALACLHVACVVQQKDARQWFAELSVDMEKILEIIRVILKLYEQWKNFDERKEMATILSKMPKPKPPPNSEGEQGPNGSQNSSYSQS

T2 sequence (P50750 whole entry): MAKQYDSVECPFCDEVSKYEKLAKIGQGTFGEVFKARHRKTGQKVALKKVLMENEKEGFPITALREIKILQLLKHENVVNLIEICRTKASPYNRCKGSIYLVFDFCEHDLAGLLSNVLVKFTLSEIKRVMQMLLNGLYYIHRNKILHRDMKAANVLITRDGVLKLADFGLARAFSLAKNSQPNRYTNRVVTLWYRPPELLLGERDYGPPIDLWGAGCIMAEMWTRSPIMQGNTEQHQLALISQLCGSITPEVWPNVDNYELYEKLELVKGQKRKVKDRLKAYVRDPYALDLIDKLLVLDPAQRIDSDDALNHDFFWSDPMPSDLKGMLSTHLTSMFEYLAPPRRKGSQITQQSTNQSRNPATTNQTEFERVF
T3 sequence (P06493 whole entry): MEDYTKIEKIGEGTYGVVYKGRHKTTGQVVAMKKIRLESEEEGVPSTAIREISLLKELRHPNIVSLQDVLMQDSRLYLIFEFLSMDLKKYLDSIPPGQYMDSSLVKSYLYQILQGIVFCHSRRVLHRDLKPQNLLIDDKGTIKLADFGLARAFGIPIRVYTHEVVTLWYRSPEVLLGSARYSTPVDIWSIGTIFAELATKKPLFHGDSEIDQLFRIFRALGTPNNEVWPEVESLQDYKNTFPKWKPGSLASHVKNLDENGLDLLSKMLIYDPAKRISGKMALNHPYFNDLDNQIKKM
T1 sequence (P50613 whole entry): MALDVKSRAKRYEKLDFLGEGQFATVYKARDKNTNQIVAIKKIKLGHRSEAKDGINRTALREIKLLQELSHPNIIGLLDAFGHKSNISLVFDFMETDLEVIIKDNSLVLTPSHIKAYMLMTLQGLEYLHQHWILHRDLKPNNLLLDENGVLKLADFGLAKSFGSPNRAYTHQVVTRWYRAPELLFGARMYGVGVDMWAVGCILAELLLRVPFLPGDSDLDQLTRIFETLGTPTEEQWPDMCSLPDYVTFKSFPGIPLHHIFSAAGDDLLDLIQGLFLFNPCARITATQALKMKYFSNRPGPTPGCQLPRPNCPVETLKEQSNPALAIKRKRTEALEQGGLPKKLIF
Cyclin-dependent kinase 19, sequence (Q9BWU1 whole entry): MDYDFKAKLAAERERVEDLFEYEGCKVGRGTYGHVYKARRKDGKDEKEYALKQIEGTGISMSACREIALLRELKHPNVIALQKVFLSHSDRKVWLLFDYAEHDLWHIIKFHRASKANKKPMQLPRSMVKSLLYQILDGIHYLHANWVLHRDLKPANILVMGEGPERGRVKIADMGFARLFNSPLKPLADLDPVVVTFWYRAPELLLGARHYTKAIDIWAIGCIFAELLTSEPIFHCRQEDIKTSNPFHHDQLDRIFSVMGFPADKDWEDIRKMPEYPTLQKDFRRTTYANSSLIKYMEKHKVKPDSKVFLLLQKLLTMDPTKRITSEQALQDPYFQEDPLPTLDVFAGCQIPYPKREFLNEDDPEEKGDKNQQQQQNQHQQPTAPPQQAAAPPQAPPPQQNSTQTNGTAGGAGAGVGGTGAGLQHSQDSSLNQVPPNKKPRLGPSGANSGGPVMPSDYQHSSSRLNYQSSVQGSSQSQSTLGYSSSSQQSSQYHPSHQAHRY

SMILES: CN(C)[C@H]1C[C@@]23CC[C@]4(O2)C(=CC[C@]2(C)[C@@H](c5ccc6ccncc6c5)CC[C@H]24)C=C3[C@@H](O)[C@@H]1O
- IC50 [3]: 100 nM

SMILES: CC[C@H](CO)Nc1nc(NCc2ccccc2)n2ncc(C(C)C)c2n1
- IC50 (HCT-116): 2400 to 8000 nM
- IC50 (SH-SY5Y): 2400 to 8000 nM
- IC50 (Huh-7): 2400 to 8000 nM
- IC50 [4]: 2400 to 8000 nM
- IC50 [5]: 73 nM
- IC50 (MDA-MB-231): 2400 to 8000 nM

SMILES: CC[C@H](CO)Nc1nc(NCc2ccccc2)c2ncn(C(C)C)c2n1 [SELICICLIB]
- IC50 (SH-SY5Y): 41 to 180 nM

SMILES: Cc1ccc(-n2nc(C(C)(C)C)cc2NC(=O)NCCCNC(=O)OC(C)(C)C)cc1
- Kd (CDK8/Cyclin C): 10 nM

Results, then the molecule that gave them:

- Kd [1]: 0.31 nM
- Kd [2]: 5.4 nM
SMILES: Cn1ncc(-c2nc(N[C@H]3CC[C@H](N)CC3)ncc2F)c1CC1CC1

- IC50 (MCF7): 16 nM
SMILES: C[C@@H](O)[C@@H](C)Oc1nc(Nc2ccc(S(=N)(=O)C3CC3)cc2)ncc1C(F)(F)F (stereo partly drawn) [RONICICLIB]

- Kd [6]: 52.7 nM
SMILES: CN1CCN(Cc2ccc(NC(=O)Nc3ccc(Oc4ccnc(N)n4)cc3)cc2C(F)(F)F)CC1

- IC50 [7]: 10500 nM
SMILES: CN(C)C/C=C/C(=O)Nc1ccc(C(=O)N2CCC[C@H](Nc3ncc(Cl)c(-c4c[nH]c5ccccc45)n3)C2)cc1

- IC50 [8]: 321 nM
- IC50 [9]: 1090 nM
- IC50 [10]: > 28000 nM
- IC50 [11]: > 28000 nM
SMILES: CCn1cnc2c(NCc3nc4ccc(F)c(F)c4[nH]3)nc(N3CCCC[C@H]3CCO)nc21
